According to patent US11959083B2, “Immunosuppression-reverting oligonucleotides inhibiting the expression of CD39” (Secarna Pharmaceuticals GmbH & Co. KG, priority 2016, dated 2024):
l = locked nucleic acid (LNA); d = 2'-deoxy (DNA)

Columns and labels:
Format in all cases: cell-based, human
hCD39 mRNA [1] = assay: hCD39 mRNA knockdown efficacy screen in A-172 cells (single dose, gymnotic delivery, QuantiGene Singleplex); conditions: 10 μM, 3 days, normalized to HPRT1
How it was run: (§1)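 Antisense oligonucleotides given once at 10 μM without transfection reagent (gymnotic) to HDLM-2 or A-172 cells for 3 days. hCD39 mRNA measured by QuantiGene Singleplex, normalized to HPRT1 and expressed relative to untreated cells; triplicate means.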

hCD39 mRNA [2] = assay: hCD39 mRNA knockdown efficacy screen in HDLM-2 cells (single dose, gymnotic delivery, QuantiGene Singleplex); parameters: key to Relative hCD39 mRNA expression (compared to non-treated cells): *: values are below detection limit; conditions: 10 μM, 3 days
How it was run: as §1

hCD39 mRNA [3] = assay: IC50 determination / concentration-dependent hCD39 mRNA knockdown in HDLM-2 cells; conditions: for mRNA inhibition: HDLM-2, 3 days, Table 8
How it was run: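 Antisense oligonucleotides applied to HDLM-2 cells for 3 days, titrated 10 μM down to 4.5 nM. hCD39 mRNA normalized to HPRT1 and expressed as residual level relative to untreated cells (100); mean of triplicates, IC50 from concentration-response.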

hCD39 protein = assay: Concentration- and time-dependent hCD39 protein knockdown in HDLM-2 cells (flow cytometry); conditions: for Inhibition [%] (Protein/mRNA): HDLM-2, CD39 protein
Method: FIG. 8 depicts concentration- and time-dependent CD39 protein knockdown by A04040H (SEQ ID No. 3) and A04045H (SEQ ID No. 4). Analysis of CD39 protein expression by flow cytometry in HDML-2 cells is given after treatment with the indicated antisense oligonucleotides for 3, 4 and 6 days. As treatment control, cells were treated with neg1 for 3, 4 and 6 days at the indicated concentrations. Relative expression compared to untreated control cells (=1) is depicted.
(§2) HDLM-2 cells were therefore treated with different concentrations of the respective antisense oligonucleotide for three, four and six days, respectively. Protein expression was analyzed by flow cytometry using the CD39 antibody (clone A1) and 7-AAD to investigate viability. […] Table 13summarizes protein knockdown efficiency of the selected human CD39 antisense oligonucleotides A04040H (SEQ ID No. 3) and A04045H (SEQ ID No. 4) in HDLM-2 cells at different time points: […]

HDLM-2 cells = assay: Viability of HDLM-2 cells (7-AAD, flow cytometry); conditions: three, four and six days, different concentrations
Method: as §2

+C*+A*+C*T*T*A*C*G*T*T*C*A*C*T*+A*+C*+C (antisense CACTTACGTTCACTACC; sugars from the 5' end l3 d11 l3, all phosphorothioate, methylation of C not given here) [A04045H]
Mean hCD39 mRNA expression (relative to untreated cells set as 1) (hCD39 mRNA [1]; first screening round): 0.16
Relative hCD39 mRNA expression (compared to non-treated cells) (hCD39 mRNA [1]; second screening round): 0.08
Mean hCD39 mRNA expression normalized to HPRT1 relative to untreated control = 1 (hCD39 mRNA [2]; first screening round): 0.09
Relative hCD39 mRNA expression (compared to non-treated cells) (hCD39 mRNA [2]; second screening round, normalized to HPRT1): *
mRNA inhibition (hCD39 mRNA [3]; 0.0045 μM): 30.70%
mRNA inhibition (hCD39 mRNA [3]; 0.013 μM): 33.03%
mRNA inhibition (hCD39 mRNA [3]; 0.04 μM): 54.20%
mRNA inhibition (hCD39 mRNA [3]; 0.12 μM): 73.62%
mRNA inhibition (hCD39 mRNA [3]; 0.4 μM): 87.63%
mRNA inhibition (hCD39 mRNA [3]; 1.1 μM): 95.07%
mRNA inhibition (hCD39 mRNA [3]; 3.3 μM): 97.44%
mRNA inhibition (hCD39 mRNA [3]; 10 μM): 99.19%
maximal target inhibition (hCD39 mRNA) (hCD39 mRNA [3]; HDLM-2 cells, compared to untreated cells, first IC50 determination): 99.2%
IC50 (hCD39 mRNA [3]; HDLM-2 cells, hCD39 mRNA, 3 days, first screening round (Table 8)): 66.8 nM
Inhibition [%] (Protein/mRNA) (hCD39 protein; Day 3, 0.1 μM): 38.81%
Inhibition [%] (Protein/mRNA) (hCD39 protein; Day 3, 0.5 μM): 50.37%
Inhibition [%] (Protein/mRNA) (hCD39 protein; Day 3, 1 μM): 51.53%
Inhibition [%] (Protein/mRNA) (hCD39 protein; Day 3, 10 μM): 54.88%
Inhibition [%] (Protein/mRNA) (hCD39 protein; Day 4, 0.1 μM): 61.88%
Inhibition [%] (Protein/mRNA) (hCD39 protein; Day 4, 0.5 μM): 73.20%
Inhibition [%] (Protein/mRNA) (hCD39 protein; Day 4, 1 μM): 75.55%
Inhibition [%] (Protein/mRNA) (hCD39 protein; Day 4, 10 μM): 78.72%
Inhibition [%] (Protein/mRNA) (hCD39 protein; Day 6, 0.1 μM): 80.24%
Inhibition [%] (Protein/mRNA) (hCD39 protein; Day 6, 0.5 μM): 89.53%
Inhibition [%] (Protein/mRNA) (hCD39 protein; Day 6, 1 μM): 90.46%
Inhibition [%] (Protein/mRNA) (hCD39 protein; Day 6, 10 μM): 94.06%
inhibition of hCD39 protein (hCD39 protein; HDLM-2 cells, three, four and six days, different concentrations): potent inhibition of hCD39 protein after all indicated time points
viability of HDLM-2 cells (HDLM-2 cells): did not affect viability
